Consider eight compounds from patent publication US20060241297A1, “Pyridinylamino-pyrimidine derivatives as protein kinase inhibitors” (Cyclacel Limited, priority 2003, published 2006).

One may read the IC50 as the concentration at which inhibition is half-maximal. For orientation: melting point means the temperature, or range, at which the solid turns liquid.

Data set [1] has as its target CDK2/cyclin A (Homo sapiens, UniProt P24941). Put plainly: Kinase assay, incorporation of radioactive phosphate from ATP. Format: biochemical. As to conditions: 100 μM ATP, 30° C.; read-out: Kinase inhibition Ki CDK2/cyclin A. How it is done:
(§1) The compounds from the examples above were investigated for their ability to inhibit the enzymatic activity of various protein kinases. This was achieved by measurement of incorporation of radioactive phosphate from ATP into appropriate polypeptide substrates. Recombinant protein kinases and kinase complexes were produced or obtained commercially. Assays were performed using 96-well plates and appropriate assay buffers (typically 25 mM β-glycerophosphate, 20 mM MOPS, 5 mM EGTA, 1 mM DTT, 1 mM […], pH 7.4), into which were added 2-4 μg of active enzyme with appropriate substrates. The reactions were initiated by addition of Mg/ATP mix (15 mM MgCl2+100 μM ATP with 30-50 kBq per well of [γ-^32P]-ATP) and mixtures incubated as required at 30° C. Reactions were stopped on ice, followed by filtration through p81 filterplates or GF/C filterplates (Whatman Polyfiltronics, Kent, UK). After washing 3 times with 75 mM aq orthophosphoric acid, plates were dried, scintillant added and incorporated radioactivity measured in a scintillation counter (TopCount, Packard Instruments, Pangboume, Berks, UK). Compounds for kinase assay were made up as 10 mM stocks in DMSO and diluted into 10% DMSO in assay buffer. Data was analysed using curve-fitting software (GraphPad Prism version 3.00 for Windows, GraphPad Software, San Diego Calif. USA) to determine IC50 values (concentration of test compound which inhibits kinase activity by 50%.).

Data set [2] addresses CDK1/cyclin B (Homo sapiens, UniProt P06493). Described as above. Format: biochemical. As to conditions: 100 μM ATP, 30° C.; read-out: Kinase inhibition Ki CDK1/cyclin B. How it is done: as §1
For data set [3], the target named is T1, Aurora-A (Homo sapiens, UniProt O14965).
T1 sequence (O14965 1-403): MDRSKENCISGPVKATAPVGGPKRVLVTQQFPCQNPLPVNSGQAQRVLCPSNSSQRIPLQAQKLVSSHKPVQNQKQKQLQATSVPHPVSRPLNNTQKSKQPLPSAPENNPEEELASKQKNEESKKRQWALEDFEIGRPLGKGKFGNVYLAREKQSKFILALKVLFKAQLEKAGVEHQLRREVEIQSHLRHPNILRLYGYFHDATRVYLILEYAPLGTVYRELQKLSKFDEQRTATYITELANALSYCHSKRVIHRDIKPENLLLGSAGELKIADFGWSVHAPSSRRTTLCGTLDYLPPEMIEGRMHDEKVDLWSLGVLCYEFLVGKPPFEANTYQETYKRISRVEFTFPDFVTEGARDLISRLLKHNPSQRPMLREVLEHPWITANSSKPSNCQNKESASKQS
The description is as above. It counts as biochemical. As to conditions: 100 μM ATP, 30° C.; read-out: Kinase inhibition Ki Aurora-A. How it is done: as §1

In data set [4] the target is CDK4/cyclin D1 (Homo sapiens, UniProt P11802). The description is as above. Format: biochemical. As to conditions: 100 μM ATP, 30° C.; read-out: Kinase inhibition Ki CDK4/cyclin D1. How it is done: as §1
Data set [5] has as its target CDK2/cyclin E (Homo sapiens, UniProt P24941). The description is as above. It counts as biochemical. As to conditions: 100 μM ATP, 30° C.; read-out: Kinase inhibition Ki CDK2/cyclin E. How it is done: as §1
The target of data set [6] is CDK9/cyclin T1 (Homo sapiens, UniProt P50750). Described as above. It counts as biochemical. As to conditions: 100 μM ATP, 30° C.; read-out: Kinase inhibition Ki CDK9/cyclin T1. How it is done:
as §1

Data set [7] concerns the target GSK3β (Homo sapiens, UniProt P49841). Described as above. As to conditions: 100 μM ATP, 30° C.; read-out: Kinase inhibition Ki GSK3β. It counts as biochemical. How it is done:
as §1

Data set [8] concerns the target CDK7/cyclin H (Homo sapiens, UniProt P50613). The data set is described as above. Format: biochemical. As to conditions: 100 μM ATP, 30° C.; read-out: Kinase inhibition Ki CDK7/cyclin H. How it is done: as §1
Data set [9] has as its system HT29. Put plainly: 72-h MTT cytotoxicity assay. It counts as cell-based. As to conditions: Homo sapiens, HT-29. How it is done: (§2) The compounds from the examples above were subjected to a standard cellular proliferation assay using human tumour cell lines obtained from the ATCC (American Type Culture Collection, 10801 University Boulevard, Manessas, Va. 20110-2209, USA). Standard 72-h MTT (thiazolyl blue; 3-[4,5-dimethylthiazol-2-yl]-2,5-diphenyltetrazolium bromide) assays were performed. In short: cells were seeded into 96-well plates according to doubling time and incubated overnight at 37° C. Test compounds were made up in DMSO and a 1/3 dilution series prepared in 100 μL cell media, added to cells (in triplicates) and incubated for 72 ho at 37° C. MTT was made up as a stock of 5 mg/mL in cell media and filter-sterilised. Media was removed from cells followed by a wash with 200 μL PBS. MTT solution was then added at 20 μL per well and incubated in the dark at 37° C. for 4 h. MTT solution was removed and cells again washed with 200 μL PBS. MTT dye was solubilised with 200 μL per well of DMSO with agitation. Absorbance was read at 540 nm and data analysed using curve-fitting software (GraphPad Prism version 3.00 for Windows, GraphPad Software, San Diego Calif. USA) to determine IC50 values (concentration of test compound which inhibits cell growth by 50%). Various modifications and variations of the described aspects of the invention will be apparent to those skilled in the art without departing from the scope and spirit of the invention. Although the invention has been described in connection with specific preferred embodiments, it should be understood that the invention as claimed should not be unduly limited to such specific embodiments. Indeed, various modifications of the described modes of carrying out the invention which are obvious to those skilled in the relevant fields are intended to be within the scope of the following claims.
Background: Formazan colour is commonly taken as a measure of viable cells.

In data set [10] the test system is Saos-2. Put plainly: 72-h MTT cytotoxicity assay. As to conditions: Homo sapiens. It counts as cell-based. How it is done:
as §2

Data set [11] deals with A549. Put plainly: 72-h MTT cytotoxicity assay. It counts as cell-based. As to conditions: Homo sapiens. How it is done:
as §2

The subject of data set [12] is transformed human cell lines (A549, HT29, Saos-2). Put plainly: 72-h MTT cytotoxicity assay, average over cell lines. It counts as cell-based. How it is done:
as §2

[13] abbreviates: average of A549, HT29, Saos-2, read-out: 72-h MTT IC50 Average.
Setting [14] is: in vitro, read-out: IC50 value (average) against one or more transformed human cell lines, 72-h MTT cytotoxicity assay.

Read-outs that look alike come from different tables or passages of the source.

CDK4/cyclin D1, sequence (P11802 whole entry): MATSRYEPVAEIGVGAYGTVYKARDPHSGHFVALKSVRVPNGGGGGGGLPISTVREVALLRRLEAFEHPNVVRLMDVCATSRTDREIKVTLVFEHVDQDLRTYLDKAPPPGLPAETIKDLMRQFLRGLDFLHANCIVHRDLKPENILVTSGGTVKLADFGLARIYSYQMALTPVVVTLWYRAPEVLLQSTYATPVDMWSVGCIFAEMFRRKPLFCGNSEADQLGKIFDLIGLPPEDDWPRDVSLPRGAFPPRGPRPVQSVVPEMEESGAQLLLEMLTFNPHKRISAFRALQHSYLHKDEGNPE
CDK4/cyclin D1, sequence (P24385 whole entry partner): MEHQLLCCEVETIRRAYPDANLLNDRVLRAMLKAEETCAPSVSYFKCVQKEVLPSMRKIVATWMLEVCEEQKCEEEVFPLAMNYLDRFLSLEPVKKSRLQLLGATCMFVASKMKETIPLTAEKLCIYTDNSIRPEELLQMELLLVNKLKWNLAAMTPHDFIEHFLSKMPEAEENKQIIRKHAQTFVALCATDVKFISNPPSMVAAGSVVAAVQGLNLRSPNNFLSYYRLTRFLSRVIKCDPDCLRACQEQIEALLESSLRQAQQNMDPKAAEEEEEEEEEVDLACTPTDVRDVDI
GSK3β, sequence (P49841 whole entry): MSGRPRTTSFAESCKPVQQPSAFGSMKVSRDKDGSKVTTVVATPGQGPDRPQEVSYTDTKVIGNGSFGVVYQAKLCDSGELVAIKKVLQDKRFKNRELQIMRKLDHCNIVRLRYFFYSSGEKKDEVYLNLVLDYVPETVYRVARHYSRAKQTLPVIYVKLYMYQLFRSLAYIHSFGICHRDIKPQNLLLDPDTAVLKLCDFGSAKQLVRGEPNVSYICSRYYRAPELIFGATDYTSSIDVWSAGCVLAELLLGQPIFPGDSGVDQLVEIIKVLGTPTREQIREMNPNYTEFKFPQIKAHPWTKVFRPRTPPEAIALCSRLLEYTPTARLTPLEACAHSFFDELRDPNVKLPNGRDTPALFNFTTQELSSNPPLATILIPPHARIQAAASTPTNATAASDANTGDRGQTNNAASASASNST
CDK9/cyclin T1, sequence (P50750 whole entry): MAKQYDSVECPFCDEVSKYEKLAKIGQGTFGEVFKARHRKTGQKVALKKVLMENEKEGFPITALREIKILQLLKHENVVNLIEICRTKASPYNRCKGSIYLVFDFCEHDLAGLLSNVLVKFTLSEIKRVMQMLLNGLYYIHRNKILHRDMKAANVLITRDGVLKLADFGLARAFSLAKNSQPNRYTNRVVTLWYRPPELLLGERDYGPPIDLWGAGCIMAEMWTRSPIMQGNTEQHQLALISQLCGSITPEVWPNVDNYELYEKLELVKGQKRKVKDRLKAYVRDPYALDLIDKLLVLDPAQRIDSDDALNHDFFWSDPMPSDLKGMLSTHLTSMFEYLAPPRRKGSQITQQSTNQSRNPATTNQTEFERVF
CDK9/cyclin T1, sequence (O60563 whole entry partner): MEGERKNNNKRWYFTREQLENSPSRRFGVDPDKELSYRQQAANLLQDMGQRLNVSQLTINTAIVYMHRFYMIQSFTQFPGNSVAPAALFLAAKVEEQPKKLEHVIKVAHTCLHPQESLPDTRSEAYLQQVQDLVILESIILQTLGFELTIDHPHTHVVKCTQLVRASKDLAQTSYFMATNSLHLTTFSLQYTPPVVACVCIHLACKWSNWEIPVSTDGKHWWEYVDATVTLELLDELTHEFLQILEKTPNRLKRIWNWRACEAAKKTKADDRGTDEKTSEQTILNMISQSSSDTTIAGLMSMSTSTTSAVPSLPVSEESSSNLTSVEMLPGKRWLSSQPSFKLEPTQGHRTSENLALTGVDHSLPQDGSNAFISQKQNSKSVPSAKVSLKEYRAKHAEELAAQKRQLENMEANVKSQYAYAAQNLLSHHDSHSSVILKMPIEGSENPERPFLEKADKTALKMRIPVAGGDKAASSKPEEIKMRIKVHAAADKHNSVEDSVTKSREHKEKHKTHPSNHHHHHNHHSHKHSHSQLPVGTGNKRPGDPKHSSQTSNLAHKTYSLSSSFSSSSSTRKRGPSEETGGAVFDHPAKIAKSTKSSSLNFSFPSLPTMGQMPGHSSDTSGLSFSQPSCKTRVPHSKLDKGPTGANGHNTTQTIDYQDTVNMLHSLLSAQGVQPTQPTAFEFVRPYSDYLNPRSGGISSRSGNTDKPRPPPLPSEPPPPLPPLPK
CDK7/cyclin H, sequence (P50613 whole entry): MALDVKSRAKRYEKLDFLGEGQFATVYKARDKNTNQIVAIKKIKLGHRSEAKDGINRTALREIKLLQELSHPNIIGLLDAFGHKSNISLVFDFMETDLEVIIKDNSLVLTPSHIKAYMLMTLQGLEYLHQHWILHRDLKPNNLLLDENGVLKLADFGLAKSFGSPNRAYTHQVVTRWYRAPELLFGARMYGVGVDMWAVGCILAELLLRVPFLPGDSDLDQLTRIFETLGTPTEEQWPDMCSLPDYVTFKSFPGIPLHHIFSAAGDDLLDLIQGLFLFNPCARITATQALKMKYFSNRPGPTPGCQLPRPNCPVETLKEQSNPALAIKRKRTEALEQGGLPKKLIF
CDK7/cyclin H, sequence (P51946 whole entry partner): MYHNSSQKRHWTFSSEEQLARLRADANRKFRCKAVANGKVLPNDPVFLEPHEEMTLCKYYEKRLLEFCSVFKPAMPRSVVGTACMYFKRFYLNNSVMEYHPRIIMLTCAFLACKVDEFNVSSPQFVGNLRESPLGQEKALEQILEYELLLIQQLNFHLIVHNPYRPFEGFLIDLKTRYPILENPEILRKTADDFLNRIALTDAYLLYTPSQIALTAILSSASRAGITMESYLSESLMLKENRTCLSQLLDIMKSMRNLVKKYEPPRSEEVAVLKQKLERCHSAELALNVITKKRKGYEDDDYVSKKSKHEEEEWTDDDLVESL
CDK1/cyclin B, sequence (P06493 whole entry): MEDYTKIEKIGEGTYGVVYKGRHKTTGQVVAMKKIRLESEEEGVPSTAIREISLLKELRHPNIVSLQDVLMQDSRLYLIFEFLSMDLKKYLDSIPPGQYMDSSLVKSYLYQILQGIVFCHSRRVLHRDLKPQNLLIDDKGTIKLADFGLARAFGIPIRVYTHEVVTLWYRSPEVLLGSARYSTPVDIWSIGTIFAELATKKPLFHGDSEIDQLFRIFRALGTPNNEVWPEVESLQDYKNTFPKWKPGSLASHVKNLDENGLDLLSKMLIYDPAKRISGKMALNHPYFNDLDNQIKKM
CDK1/cyclin B, sequence (P14635 whole entry partner): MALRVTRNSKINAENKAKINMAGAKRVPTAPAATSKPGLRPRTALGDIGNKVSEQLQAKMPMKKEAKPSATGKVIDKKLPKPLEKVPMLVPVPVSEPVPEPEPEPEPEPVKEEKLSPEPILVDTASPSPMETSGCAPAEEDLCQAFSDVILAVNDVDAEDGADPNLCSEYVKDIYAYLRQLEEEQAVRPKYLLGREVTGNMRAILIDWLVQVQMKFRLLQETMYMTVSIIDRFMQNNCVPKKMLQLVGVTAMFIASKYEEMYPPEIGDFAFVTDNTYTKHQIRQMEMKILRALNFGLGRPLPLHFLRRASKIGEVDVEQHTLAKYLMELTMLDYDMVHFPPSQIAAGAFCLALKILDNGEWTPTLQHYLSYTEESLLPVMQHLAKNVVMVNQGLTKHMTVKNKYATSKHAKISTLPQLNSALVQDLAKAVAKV

Consider `Cc1nc(C)c(-c2ccnc(Nc3ccc(Cl)nc3)n2)s1` [Compound 3, (6-Chloro-pyridin-3-yl)-[4-(2,4-dimethyl-thiazol-5-yl)-pyrimidin-2-yl]-amine], for which the Ki in [1] is 1700 nM; in data set [2], 4200 nM; in [3] it was 860 nM; in data set [4], 660 nM; in [5] it was 350 nM; in data set [6], 970 nM. In addition, the Ki was 110 nM in [7] and 7200 nM in data set [8]. Moreover, the half-maximal inhibitory concentration (IC50) in data set [9] is 2800 nM; in [10], 4400 nM; in [11], 9800 nM; in data set [12] (setting [13]), 5700 ± 3700 nM; in [12] (setting [14]), less than 10000 nM.
On to `CCNc1nc(C)c(-c2ccnc(Nc3ccc(OC)nc3)n2)s1` [Compound 12, [4-(2-Ethylamino-4-methyl-thiazol-5-yl)-pyrimidin-2-yl]-(6-methoxy-pyridin-3-yl)-amine], for which the Ki in data set [1] is 30 nM; in [2], 100 nM; in data set [4], 80 nM; in data set [5] it was 50 nM; in data set [6], 90 nM; in data set [7] it was 60 nM. The Ki in data set [8] was determined as 130 nM. The IC50 worked out at 800 nM in data set [9], 1500 nM in data set [10], 1200 nM in [11] and 1200 ± 400 nM in data set [12] (setting [13]).
`COc1ccc(Nc2nccc(-c3sc(N(C)C)nc3C)n2)cn1` [Compound 10, [4-(2-Dimethylamino-4-methyl-thiazol-5-yl)-pyrimidin-2-yl]-(6-methoxy-pyridin-3-yl)-amine]: the Ki in data set [1] worked out at 330 nM; in data set [2] it was 1200 nM; in data set [4] it was 70 nM; in data set [5], 120 nM; in data set [6], 140 nM; in data set [7], 110 nM. In addition, in data set [8], the Ki amounted to 2300 nM. Moreover, the IC50 in data set [9] is 1700 nM; in data set [10], 1800 nM; in [11], 2400 nM; in data set [12] (setting [13]) it was 2000 ± 400 nM.
As for `CNc1nc(C)c(-c2ccnc(Nc3ccc(OC)nc3)n2)s1` [Compound 8, (6-Methoxy-pyridin-3-yl)-[4-(4-methyl-2-methylamino-thiazol-5-yl)-pyrimidin-2-yl]-amine], the Ki in [1] is 270 nM; in [2] it was 840 nM; in data set [4], 40 nM; in [5], 30 nM; in data set [6] it was 6 nM; in data set [7], 50 nM. Further, the Ki in [8] amounted to 430 nM. Besides, the IC50 in data set [9] was found to be 2000 nM; in data set [10], 1700 nM; in [11], 1400 nM; in data set [12] (setting [13]) it was 1700 ± 300 nM.
For the compound `Cc1nc(N)sc1-c1ccnc(Nc2ccc(Cl)nc2)n1` [Compound 7, [4-(2-Amino-4-methyl-thiazol-5-yl)-pyrimidin-2-yl]-(6-chloro-pyridin-3-yl)-amine], the Ki turned out to be 860 nM in data set [1]; 2000 nM in data set [2]; 70 nM in data set [4]; 50 nM in [5]; 5 nM in data set [6]; 160 nM in data set [7]. Besides, the Ki in data set [8] came out at 1500 nM. In addition, the IC50 in [9] was 3400 nM; in data set [10], 3100 nM; in data set [11] it was 3300 nM; in data set [12] (setting [13]), 3200 ± 100 nM; in data set [12] (setting [14]) it was less than 10000 nM.
`Cc1nc(C)c(-c2ccnc(Nc3ccc[n+](C)c3)n2)s1` [Compound 2, 3-[4-(2,4-Dimethyl-thiazol-5-yl)-pyrimidin-2-ylamino]-1-methyl-pyridinium]: the melting point is 297 to 300 °C. Also, the Ki in data set [4] was determined as 4100 nM. Further, in [5], the Ki was 1500 nM. Further, 86000 nM corresponded to half-maximal inhibition in data set [9] (IC50). For the same compound, the IC50 in [10] was 48500 nM. In [11], this compound registered an IC50 of 11600 nM. For the same compound, the IC50 in data set [12] (setting [13]) stood at 48700 ± 37200 nM.
With `Cc1nc(C)c(-c2ccnc(Nc3ccc(N4CCCC4)nc3)n2)s1` [Compound 14, [4-(2,4-Dimethyl-thiazol-5-yl)-pyrimidin-2-yl]-(6-pyrrolidin-1-yl-pyridin-3-yl)-amine], the Ki in [1] was determined as 1400 nM; in [2] it was 2100 nM; in data set [3] it was 120 nM; in data set [4] it was 2600 nM; in data set [6] it was 100 nM; in data set [8], 730 nM. Further, the figures for the IC50 in [10], in [11] and in data set [12] (setting [13]) were 320 nM, 300 nM and 300 nM, respectively.
For the compound `CNc1nc(C)c(-c2ccnc(Nc3ccc(Cl)nc3)n2)s1` [Compound 9, (6-Chloro-pyridin-3-yl)-[4-(4-methyl-2-methylamino-thiazol-5-yl)-pyrimidin-2-yl]-amine], the Ki in data set [1] came out at 480 nM; in data set [3] it was 1000 nM; in data set [4] it was 980 nM; in data set [5] it was 80 nM; in data set [6] it was 110 nM. For the same compound, the IC50 is 4700 nM in data set [9]; 5200 nM in data set [10]; 3700 nM in data set [11]; 4600 ± 800 nM in data set [12] (setting [13]); less than 10000 nM in data set [12] (setting [14]).
